Assay results: ChEMBL document CHEMBL5030555
Activity calls are given as the source filed them. No cut-off for these calls is given here.

system: Vero; assay: Inhibition of Escherichia coli Stx2a using african green monkey Vero cell assessed as inhibition of depurination incubated pretreated cells for 1 hr measured after 2 hrs of toxin addition; assay type: cell-based; conditions: time 3.0 hrs

| SMILES | inhibition |
| --- | --- |
| Cc1cc(C)c(-c2ccc(C(=O)O)s2)c(C)c1 | inactive |
| Cc1cccc(C)c1-c1ccc(C(=O)O)s1 | inactive |
| CCc1ccccc1-c1ccc(C(=O)O)s1 | inactive |
| Cc1ccccc1-c1ccc(C(=O)O)s1 | inactive |

system: Vero; assay: Protection against Escherichia coli Stx2a-induce d african green monkey Vero cell death assessed as protection of cell viability incubated pretreated cells for 1 hr measured after 2 hrs of toxin addition; assay type: functional, cell-based; conditions: Chlorocebus sabaeus, time 3.0 hrs

| SMILES | Activity |
| --- | --- |
| Cc1cc(C)c(-c2ccc(C(=O)O)s2)c(C)c1 | inactive |
| Cc1cccc(C)c1-c1ccc(C(=O)O)s1 | inactive |
| CCc1ccccc1-c1ccc(C(=O)O)s1 | inactive |
| Cc1ccccc1-c1ccc(C(=O)O)s1 | inactive |
